Experimental data: patent US5919897A (priority 1995, dated 1999)
Where no end group is shown, it is not given here. [ ]: non-standard residue; d: D form.

Experiments:
μ receptor = biological target: T1, μ receptor (Homo sapiens, UniProt P35372); test: Adenylyl cyclase assay using human SH-SY5Y neuroblastoma cell line membranes; format: biochemical
T1 construct: An adenylyl cyclase assay using human SH-SY5Y neuroblastoma cell line membranes; endogenous in cells; host or cells: human SH-SY5Y neuroblastoma cells, differentiated with retinoic acid; membranes
Experimental: An adenylyl cyclase assay using human SH-SY5Y neuroblastoma cell line membranes was used to rapidly determine the opioid agonists or antagonist properties of individual peptides.
After the initial centrifugation at 200×g for 15 min at 4° C., the cells were resuspended in sucrose buffer (0.32M sucrose, 40 mM HEPES, 2 mM EDTA, pH 7.6). Cells were centrifuged again at 200×g, then homogenized in sucrose buffer with five strokes of a Dounce Homogenizer (Wheaton Instruments, Millville, N.J.). Membranes were centrifuged at 22000×g for 20 min at 4° C., then resuspended in sucrose buffer. […] SH-SY5Y membranes at a protein concentration of 1-4 mg/ml were stored at -80° C.
SH-SY5Y membranes were incubated in a final volume of 100 μl of 40 mM HEPES, pH 7.7, containing 15 units of creatine phosphokinase, 20 mM phosphocreatine, 1 mM 1,10-o-phenanthroline, 60 μM isobutylmethylxanthine (IBMX), 50 μM ATP, 50 μM GTP, 3 mM MgCl2 and 100 mM NaCl. Each of the agonists and antagonists tested were included at final concentrations of 100 μM and 500 μM, respectively. The reaction was initiated by the addition of 36 μg of membrane protein. After 15 min at 30° C., the reaction was stopped by the addition of 100μl of cold 4.5% perchloric acid. The samples were neutralized by the addition 40 μl of cold 30% potassium bicarbonate. Finally, the membranes were centrifuged at 12000×g for 4 min at 4° C. in a microcentrifuge; The amount of cyclic AMP present in 100μl of the supernatant, equivalent to the cyclic AMP produced by 15 μg of membrane protein, was determined using a cyclic AMP kit (Diagnostic Products, Los Angeles, Calif.). […] [^3 H]-cyclic AMP, 0.9 μCi, was added into 6 ml of H2 O, and 100 μl of the diluted [^3 H]-cyclic AMP was added to the assay tubes. The final supernatants were counted in 10 ml of Ecolite (+) scintillation fluid (ICN Pharmaceuticals, Covina, Calif.).

MU RECEPTOR = test: Mu receptor agonist or antagonist activity, by either the adenylyl cyclase assay or the GPI assay (Table 13)

T1 sequence (P35372 whole entry): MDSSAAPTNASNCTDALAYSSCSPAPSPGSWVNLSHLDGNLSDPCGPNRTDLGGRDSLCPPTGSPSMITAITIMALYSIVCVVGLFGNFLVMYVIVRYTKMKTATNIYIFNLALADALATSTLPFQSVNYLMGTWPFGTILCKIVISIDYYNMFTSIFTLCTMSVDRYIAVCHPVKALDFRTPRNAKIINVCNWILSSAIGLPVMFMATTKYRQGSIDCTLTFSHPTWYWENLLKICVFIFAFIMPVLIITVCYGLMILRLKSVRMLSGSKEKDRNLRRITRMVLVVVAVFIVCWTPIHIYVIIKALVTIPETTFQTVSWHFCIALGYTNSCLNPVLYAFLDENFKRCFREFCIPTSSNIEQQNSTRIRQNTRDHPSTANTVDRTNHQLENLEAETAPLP

Molecule | % Basal Control (cyclic AMP) (μ receptor; DAMGO 1 μM alone, ANTAGONISTS section) | % Basal Control +ICI 174,864 (μ receptor; DAMGO 1 μM, ANTAGONISTS section) | % Basal Control +ICI 174,864 (μ receptor; agonist 100 μM plus ICI 174,864 (antagonists 500 μM)) | % Basal Control +Naloxone (μ receptor; agonist 100 μM plus naloxone (antagonists 500 μM)) | % Basal Control (cyclic AMP) (μ receptor; agonist alone, 100 μM, SH-SY5Y membranes) | AGONIST OR ANTAGONIST (MU RECEPTOR)
C[C@@H](NC(=O)[C@@H](N)Cc1ccc(O)cc1)C(=O)NCC(=O)N(C)[C@@H](Cc1ccccc1)C(=O)NCCO [DAMGO, [D-Ala^2,MePhe^4, Gly-ol^5]enkephalin] | 61 ± 5% | 95 ± 3% | 28 ± 3% | 77 ± 8% | 34 ± 6% | –
[dI][dM][dT][dW]G[dP]-NH2 [SEQ ID NO. 130] | – | – | – | – | – | Agonist
